Reference: the supplement of paper PMC6045584
± gives the standard deviation of the averaged measurements.

How the values were obtained:
[1] = compound: CN(C)C/C=C/C(=O)Nc1cc2c(Nc3ccc(F)c(Cl)c3)ncnc2cc1O[C@H]1CCOC1 [AFATINIB]; assay: surviving fraction relative to DMSO-only wells; higher = less growth inhibition; conditions: exposure time: 5 days
Summary of the method: (§1)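 Log-phase tumour cell lines were seeded at 250–500 cells per well in 384-well plates. After 24 hours they were exposed continuously for five days to inhibitors at 0.5, 1, 5, 10, 50, 100, 500 and 1000 nM. Viability was read by CellTiter-Glo luminescence after 10 minutes at room temperature, and surviving fraction is luminescence normalised to the median of DMSO-only wells. Each line was screened three times and kept only if replicate Pearson r >0.7 and median Z' >0.3.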

[2] = compound: T1, CNC(=O)c1ccc(N2C(=S)N(c3ccc(C#N)c(C(F)(F)F)c3)C(=O)C2(C)C)cc1F [MDV3100]; assay: as above; conditions: exposure time: 5 days
Summary of the method: as §1

[3] = compound: T1, MDV3100; assay: area under dose-response curve of surviving fraction (unscaled, Aref=0) (surviving fraction x log10(nM)); higher = more resistant; conditions: exposure time: 5 days; dose range 0.5-1000 nM
Summary of the method: (§2)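 Tumour cell lines in 384-well plates were exposed to eight inhibitor concentrations, from 0.5 to 1000 nM, for five days, and viability was read by CellTiter-Glo luminescence in three screens per line. Signals were normalised to DMSO-only wells, and 3-parameter logistic regression in the drc R package fitted dose-response survival curves to the surviving fractions. Area under the curve is given as the unscaled activity area. That area is taken over log10 dose with Aref = 0.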

[4] = compound: CC[C@@H]1C(=O)N(C)c2cnc(Nc3ccc(C(=O)NC4CCN(C)CC4)cc3OC)nc2N1C1CCCC1 [BI-2536]; assay: as above; conditions: exposure time: 5 days; dose range 0.5-1000 nM
Summary of the method: as §2

[5] = compound: CC1(C)CC(=O)c2c(C(F)(F)F)nn(-c3ccc(C(N)=O)c(N[C@H]4CC[C@H](OC(=O)CN)CC4)c3)c2C1 [SNX-5422]; assay: as above; conditions: exposure time: 5 days; dose range 0.5-1000 nM
Summary of the method: as §2

[6] = compound: Nc1nc2[nH]cnc2c(=S)[nH]1 [TIOGUANINE]; assay: as above; conditions: exposure time: 5 days; dose range 0.5-1000 nM
Summary of the method: as §2

Test System | surviving fraction ([1]; 0.5 nM) | surviving fraction ([1]; 1 nM) | surviving fraction ([1]; 5 nM) | surviving fraction ([1]; 10 nM) | surviving fraction ([1]; 50 nM) | surviving fraction ([1]; 100 nM) | surviving fraction ([1]; 500 nM) | surviving fraction ([1]; 1000 nM) | surviving fraction ([2]; 0.5 nM) | surviving fraction ([2]; 1 nM) | surviving fraction ([2]; 5 nM) | surviving fraction ([2]; 10 nM) | surviving fraction ([2]; 50 nM) | surviving fraction ([2]; 100 nM) | surviving fraction ([2]; 500 nM) | surviving fraction ([2]; 1000 nM) | area under dose-response curve [3] | area under dose-response curve [4] | area under dose-response curve [5] | area under dose-response curve [6]
SCC36 HEADNECK | 0.926 ± 0.088 | 0.719 ± 0.061 | 0.523 ± 0.037 | 0.457 ± 0.031 | 0.418 ± 0.027 | 0.376 ± 0.029 | 0.264 ± 0.0053 | 0.149 ± 0.017 | 0.992 ± 0.091 | 0.955 ± 0.1 | 0.957 ± 0.065 | 1.11 ± 0.068 | 1.09 ± 0.028 | 1.03 ± 0.059 | 0.924 ± 0.051 | 0.907 ± 0.099 | 3.27 | 1.03 | 2.06 | 3.72
SG43 HEADNECK | 1.03 ± 0.33 | 0.966 ± 0.27 | 0.362 ± 0.022 | 0.414 ± 0.18 | 0.301 ± 0.11 | 0.181 ± 0.044 | 0.182 ± 0.046 | 0.0613 ± 0.035 | 0.866 ± 0.21 | 1.01 ± 0.25 | 0.913 ± 0.11 | 0.952 ± 0.14 | 0.702 ± 0.11 | 0.998 ± 0.28 | 1.17 ± 0.06 | 1.16 ± 0.065 | 3.06 | 1.83 | 1.7 | 2.96
SIHA CERVIX | 1.05 ± 0.025 | 1.06 ± 0.069 | 1.02 ± 0.022 | 1.01 ± 0.064 | 1.03 ± 0.011 | 1.07 ± 0.085 | 0.845 ± 0.019 | 0.684 ± 0.052 | 0.88 ± 0.024 | 0.824 ± 0.067 | 0.999 ± 0.038 | 0.97 ± 0.057 | 1.01 ± 0.076 | 0.975 ± 0.043 | 0.875 ± 0.086 | 0.844 ± 0.055 | 3.05 | 1.43 | 2.2 | 3.01
SJSA1 BONE | 1.05 ± 0.014 | 0.9563 ± 0.0055 | 1.11 ± 0.017 | 1.04 ± 0.05 | 1.15 ± 0.063 | 1.07 ± 0.023 | 0.995 ± 0.041 | 0.613 ± 0.033 | 0.471 ± 0.053 | 1.27 ± 0.084 | 1.43 ± 0.11 | 0.332 ± 0.037 | 0.0403 ± 0.0031 | 1.49 ± 0.034 | 0.0293 ± 0.0025 | 1.49 ± 0.023 | 2.71 | 1.58 | 2.07 | 3.46
SUM44 BREAST | 1.04 ± 0.053 | 1 ± 0.054 | 1.01 ± 0.023 | 0.995 ± 0.077 | 1.07 ± 0.027 | 1.03 ± 0.022 | 0.859 ± 0.034 | 0.448 ± 0.047 | 0.963 ± 0.096 | 0.978 ± 0.08 | 1.06 ± 0.081 | 1.04 ± 0.058 | 1.13 ± 0.13 | 1.09 ± 0.1 | 1.03 ± 0.071 | 1.01 ± 0.1 | 3.43 | 0.689 | 2.47 | 3.39
SYO1 SYNOVIAL | 0.996 ± 0.057 | 1.03 ± 0.027 | 0.948 ± 0.059 | 0.995 ± 0.026 | 0.95 ± 0.017 | 0.952 ± 0.042 | 0.606 ± 0.035 | 0.324 ± 0.02 | 0.989 ± 0.036 | 0.883 ± 0.051 | 0.946 ± 0.018 | 0.546 ± 0.027 | 0.91 ± 0.023 | 0.914 ± 0.032 | 0.987 ± 0.05 | 0.653 ± 0.023 | 2.45 | 0.562 | 1.47 | 2.43
T47D BREAST | 1.06 ± 0.033 | 1.04 ± 0.06 | 1.01 ± 0.031 | 0.98 ± 0.023 | 1.04 ± 0.013 | 1.08 ± 0.022 | 1.07 ± 0.054 | 0.939 ± 0.037 | 0.9561 ± 0.0072 | 0.988 ± 0.044 | 0.983 ± 0.021 | 0.894 ± 0.035 | 1.1 ± 0.015 | 1.02 ± 0.036 | 1.03 ± 0.047 | 0.999 ± 0.041 | 3.29 | 1.66 | 2.33 | 3.35
U2OS BONE | 1.075 ± 0.001 | 1.05 ± 0.044 | 1.06 ± 0.013 | 1.02 ± 0.024 | 1.05 ± 0.0055 | 1.04 ± 0.056 | 0.838 ± 0.021 | 0.646 ± 0.0085 | 1.003 ± 0.0095 | 1.02 ± 0.022 | 1.01 ± 0.027 | 1.01 ± 0.018 | 1.04 ± 0.026 | 1.03 ± 0.018 | 1.06 ± 0.033 | 0.999 ± 0.047 | 3.37 | 1.57 | 2.17 | 3.25
YAMATO SYNOVIAL | 1.22 ± 0.061 | 1.34 ± 0.096 | 1.32 ± 0.15 | 1.18 ± 0.0093 | 1.23 ± 0.037 | 1.27 ± 0.07 | 1.16 ± 0.035 | 0.739 ± 0.02 | 1.12 ± 0.074 | 0.741 ± 0.028 | 1.08 ± 0.076 | 0.241 ± 0.015 | 1.22 ± 0.12 | 0.977 ± 0.081 | 1.15 ± 0.053 | 0.352 ± 0.018 | 2.85 | 1.27 | 2.53 | 4.3
